Values of other authors in US6472583B1, “Plasmid-based mutation detection system in transgenic fish” (The University of Georgia Research Foundation, Inc., priority 1998, dated 2002).
Read-outs that look alike come from different tables or passages of the source.

Legend:
[1] = species not stated
[2] = tested on: λLIZ transgenic fish; conditions: previous studies using λLIZ transgenic fish

CCN(N=O)C(N)=O [ENU, N-ethyl-N-nitrosourea]
LD50 [1]: ~350 mg/kg
mutation frequency induction ([2]; dose about 0.5 mM (60 ppm)): two-fold
mutation frequency induction ([2]; dose about 120 ppm, medaka): four-fold
